Results taken from US10322087B2, “Targeted liposomal delivery of cGMP analogues” (priority 2015, dated 2019).
“Also recorded” adds a separate entry of the source.

Experiments:
[1] = system: rd1 and rd2 photoreceptors; settings: in vitro and in vivo mouse retinitis pigmentosa models; cited from earlier work
[2] = molecular target: PKG1α (Homo sapiens, UniProt Q13976); test: Inhibitory constants for DF003, PKG1α; type: biochemical
Source text: (§1) The active compound DF003 is an analogue of cGMP, blocking PKG activity with high specificity. This is particularly true for the PKG1α and PKG1β isoforms, while PKG2 is less well inhibited. The inhibitory constants for the two other potential targets CNGC and protein kinase A (PKA) isoforms 1 and 2 are 2-3 log units higher (Table 2) than those for PKG isoforms. cGMP and its analogues are targeting PKG and CNGC but could potentially also interfere with PKA, PDE or even HCN channel activity. The table gives the inhibitory constants (Ki) of DF003 for these targets and (where available) the IC50 values.

[3] = system: rd1 photoreceptor-like cells; test: Primary retinal cell culture, cell death (Ethidium homodimer), rd1; type: cell-based, mouse
Procedure: (§2) Different doses of DF003 and LP-DF003 were tested in vitro on a primary culture of retinal cells derived from the rd1 mouse model. About 20-30% of the primary cells can be differentiated into rod photoreceptors (Demontis et al. 2012, PLoS One. 7, e33338; Giordano et al. 2007, Mol. Vis. 13, 1842-1850). Retinal stem cells from adult wt and rd1 mice were isolated from the ciliary epithelium after treatment with 2 mg/ml dispase (20 min) followed by 1.33 mg/ml trypsin 0.67 mg/ml, hyaluronidase and 0.13 mg/ml kynurenic acid (10 min) and cultured for a week in serum free medium containing 20 ng/ml basic FGF, 2 μg/ml heparin, 0.6% glucose, N2 hormone mix in DMEM-F12 to form neurospheres (Giordano et al., 2007, supra). Retinal neurospheres were then plated on glass slides coated with extracellular matrix (ECM, Sigma) in DMEM-F12 supplemented with 20 ng/ml FGF for 4 days. […] Cell death was evaluated by staining of cells for 2 minutes with 2 μM Ethidium homodimer and counterstaining of nuclei with DAPI (4′,6-diamidino-2-phenylindole, Sigma). Slides were mounted with mowioll 4-88 (Sigma) and analysed at a Zeiss Axioskop 40 fluorescence microscope. Ethidium homodimer positive cells were counted in each slide and expressed as percentages of the total number of cells (DAPI stained) per slide. […]

[4] = molecular target: PKG1β (Homo sapiens, UniProt Q13976); test: Inhibitory constants for DF003, PKG1β; type: biochemical
Source text: as §1

[5] = system: wild-type (wt) photoreceptor-like cells; test: Primary retinal cell culture, wild-type; type: cell-based, mouse; settings: up to the highest concentration used, 50 μM
Procedure: as §2

[6] = system: rd1 mice; test: In vivo retinitis pigmentosa model, rd1 mouse; settings: PN14, intraperitoneal 50 mg/kg once per day, vs untreated rd1
Procedure: Before treatment with drug or drug/DDS combinations, the animals were anesthetized with diethyl-ether. For systemic treatment, 0.9% NaCl solution containing liposomal DDS/drug formulation were injected either into the tail vein (caudal vein; intravenous; i.v.; 50 μl) or into the peritoneum (intraperitoneal; i.p.; 200 μl) of the anesthetized animal. In rd10 mice, a local intravitreal (IVT) treatment was also tested. Here, the animals received a 0.5 μl injection into the vitreous body of one eye, while the other eye was kept as untreated, contralateral control. For both i.p. and IVT treatments a liposomal formulation not containing DF003 (i.e. “empty” liposomes) was used as an additional control.
The in vivo treatment was performed initially on rd1 animals, but later extended to other animal models (rd2, rd10, cpfl1, Rho P23H). […]
At various post-treatment time-points (see Table 1), in vivo optic coherence tomography (OCT) and scanning laser ophthalmoscopy (SLO) analysis was used for direct, non-invasive imaging of retinal morphology (OCT) and of fluorescently labelled drugs (SLO) or drug/DDS combinations to determine the distribution and uptake of drug in the retina. In addition, retinal function was assessed using electroretinographic (ERG) recordings. […]

[7] = system: retinal explants of rd2 mouse model; test: Organotypic retinal explant culture, rd2; type: cell-based; settings: data not shown
Source text: (§3) For biochemical analyses and comparisons between models and wt tissues, we typically use material from ages corresponding to the onset of retinal degeneration. Retinal tissue is obtained from post-natal day 5 (PN5) animals, from which, after sacrifice, the eyes are enucleated and retinae cultured as retinal explants. In brief, the retina with the retinal pigment epithelium (RPE) still attached is isolated and subsequently transferred to Millicell culture dish filter inserts (Millipore AB, Solna, Sweden; PIHA03050), with the RPE layer facing the culturing membrane. The explants are then incubated in custom made R16 nutrient medium at 37° C. The nutrient medium has a volume of 1.5 ml per dish, which is replaced with fresh medium usually every second day (unless the exact culturing paradigm requires otherwise) during the culturing period.
(§4) PN5 explants were allowed to adjust to culture conditions for two days in vitro (DIV), after which they were subjected to treatments of interest. […]
(§5) In both cases the results were captured by means of a microscope and digital camera, analysed manually or semi-automatically, and this was then followed by calculations for statistical significance of the recorded data in principle as published previously (Arango-Gonzalez et al. 2014, PLoS One. 9, e112142).

[8] = molecular target: PKG2 (Homo sapiens, UniProt Q13237); test: Inhibitory constants for DF003, PKG2; type: biochemical
Source text: as §1

[9] = molecular target: PDE2 (Homo sapiens, UniProt O00408); test: Inhibitory constants for DF003, PDE2; type: biochemical
Source text: as §1

[10] = system: CNGC; test: Inhibitory constants for DF003, CNGC; type: biochemical
Source text: as §1

[11] = molecular target: PDE5 (Homo sapiens, UniProt O76074); test: Inhibitory constants for DF003, PDE5; type: biochemical
Source text: as §1

[12] = molecular target: PDE4; test: Inhibitory constants for DF003, PDE4; type: biochemical
Source text: as §1

[13] = system: retinal explants of rd10 model; test: Organotypic retinal explant culture, rd10; type: cell-based, mouse; settings: data not shown
Source text: as §3, §4, §5

[14] = molecular target: PDE10 (Homo sapiens, UniProt Q9Y233); test: Inhibitory constants for DF003, PDE10; type: biochemical
Source text: as §1

[15] = Pharmacokinetic study in adult rats; settings: rat, blood, 20 mg/kg, single injection 20 mg/kg, read-out: in vivo half-life
Procedure: A pharmacokinetic study was performed in adult rats (3 months old) that received a single injection of either free DF003 or LP-DF003 at an initial dose of 20 mg/kg.

[16] = molecular target: PKA2; test: Inhibitory constants for DF003, PKA2; type: biochemical
Source text: as §1

[17] = system: wt explant cultures; test: Organotypic retinal explant culture, wt; type: cell-based, mouse; settings: up to 50 μM
Source text: as §3, §4, §5

[18] = system: organotypic rd1 retinal explant cultures; test: Organotypic retinal explant culture, rd1; type: cell-based, mouse
Source text: as §3, §4, §5

[19] = molecular target: PDE1B (Homo sapiens, UniProt Q01064); test: Inhibitory constants for DF003, PDE1B; type: biochemical
Source text: as §1

[20] = molecular target: PKA1; test: Inhibitory constants for DF003, PKA1; type: biochemical
Source text: as §1

Chain of PKG2 (Q13237 whole entry): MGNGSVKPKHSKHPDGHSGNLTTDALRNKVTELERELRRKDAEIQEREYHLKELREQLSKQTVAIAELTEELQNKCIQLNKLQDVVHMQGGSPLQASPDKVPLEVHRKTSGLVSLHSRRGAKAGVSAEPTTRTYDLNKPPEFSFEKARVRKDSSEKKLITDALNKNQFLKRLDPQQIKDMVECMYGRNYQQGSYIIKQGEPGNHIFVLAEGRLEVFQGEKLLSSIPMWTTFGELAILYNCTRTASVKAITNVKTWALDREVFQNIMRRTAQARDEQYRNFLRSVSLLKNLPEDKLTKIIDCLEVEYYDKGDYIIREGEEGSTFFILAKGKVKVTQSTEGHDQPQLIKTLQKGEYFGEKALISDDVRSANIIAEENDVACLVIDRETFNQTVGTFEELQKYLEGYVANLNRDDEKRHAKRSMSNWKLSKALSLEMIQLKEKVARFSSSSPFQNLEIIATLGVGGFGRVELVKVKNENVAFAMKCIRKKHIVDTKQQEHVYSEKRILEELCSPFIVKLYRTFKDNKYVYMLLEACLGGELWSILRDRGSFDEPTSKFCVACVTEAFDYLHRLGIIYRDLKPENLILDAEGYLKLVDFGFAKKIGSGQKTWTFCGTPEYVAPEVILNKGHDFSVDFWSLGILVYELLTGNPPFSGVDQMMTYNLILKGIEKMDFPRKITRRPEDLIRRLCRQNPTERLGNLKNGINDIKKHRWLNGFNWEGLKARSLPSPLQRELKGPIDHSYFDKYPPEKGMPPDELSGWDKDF
Chain of PKG1α (Q13976 whole entry, canonical isoform): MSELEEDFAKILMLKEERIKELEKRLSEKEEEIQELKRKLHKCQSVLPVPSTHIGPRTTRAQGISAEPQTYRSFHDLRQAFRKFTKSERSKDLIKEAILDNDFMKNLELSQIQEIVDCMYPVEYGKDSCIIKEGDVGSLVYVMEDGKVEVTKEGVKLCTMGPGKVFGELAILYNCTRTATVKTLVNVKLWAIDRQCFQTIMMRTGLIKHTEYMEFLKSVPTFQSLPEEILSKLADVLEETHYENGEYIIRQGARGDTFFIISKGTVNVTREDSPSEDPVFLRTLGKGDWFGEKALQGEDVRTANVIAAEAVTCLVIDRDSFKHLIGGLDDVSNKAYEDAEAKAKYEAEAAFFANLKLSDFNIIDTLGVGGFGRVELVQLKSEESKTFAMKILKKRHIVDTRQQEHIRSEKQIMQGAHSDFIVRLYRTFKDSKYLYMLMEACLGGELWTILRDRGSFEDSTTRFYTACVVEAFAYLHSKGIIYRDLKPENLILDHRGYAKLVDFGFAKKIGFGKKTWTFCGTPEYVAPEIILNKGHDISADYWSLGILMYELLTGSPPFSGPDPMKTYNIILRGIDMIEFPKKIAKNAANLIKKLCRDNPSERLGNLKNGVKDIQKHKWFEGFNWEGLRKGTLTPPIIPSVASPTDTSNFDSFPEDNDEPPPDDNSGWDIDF
Chain of PDE1B (Q01064 whole entry, species assumed): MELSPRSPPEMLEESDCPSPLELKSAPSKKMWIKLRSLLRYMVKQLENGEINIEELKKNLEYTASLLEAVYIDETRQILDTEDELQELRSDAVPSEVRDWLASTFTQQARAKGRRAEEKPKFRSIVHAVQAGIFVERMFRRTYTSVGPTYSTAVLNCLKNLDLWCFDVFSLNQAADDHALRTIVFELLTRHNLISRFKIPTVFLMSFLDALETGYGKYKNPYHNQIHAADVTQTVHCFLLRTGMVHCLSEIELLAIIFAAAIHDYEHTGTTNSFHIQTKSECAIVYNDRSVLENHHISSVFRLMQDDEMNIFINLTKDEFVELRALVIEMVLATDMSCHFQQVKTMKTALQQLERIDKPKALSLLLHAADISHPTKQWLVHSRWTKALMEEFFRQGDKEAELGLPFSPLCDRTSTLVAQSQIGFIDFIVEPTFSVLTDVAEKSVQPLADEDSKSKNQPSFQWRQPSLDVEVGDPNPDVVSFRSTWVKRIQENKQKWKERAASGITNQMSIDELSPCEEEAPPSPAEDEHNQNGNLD
Chain of PDE10 (Q9Y233 whole entry): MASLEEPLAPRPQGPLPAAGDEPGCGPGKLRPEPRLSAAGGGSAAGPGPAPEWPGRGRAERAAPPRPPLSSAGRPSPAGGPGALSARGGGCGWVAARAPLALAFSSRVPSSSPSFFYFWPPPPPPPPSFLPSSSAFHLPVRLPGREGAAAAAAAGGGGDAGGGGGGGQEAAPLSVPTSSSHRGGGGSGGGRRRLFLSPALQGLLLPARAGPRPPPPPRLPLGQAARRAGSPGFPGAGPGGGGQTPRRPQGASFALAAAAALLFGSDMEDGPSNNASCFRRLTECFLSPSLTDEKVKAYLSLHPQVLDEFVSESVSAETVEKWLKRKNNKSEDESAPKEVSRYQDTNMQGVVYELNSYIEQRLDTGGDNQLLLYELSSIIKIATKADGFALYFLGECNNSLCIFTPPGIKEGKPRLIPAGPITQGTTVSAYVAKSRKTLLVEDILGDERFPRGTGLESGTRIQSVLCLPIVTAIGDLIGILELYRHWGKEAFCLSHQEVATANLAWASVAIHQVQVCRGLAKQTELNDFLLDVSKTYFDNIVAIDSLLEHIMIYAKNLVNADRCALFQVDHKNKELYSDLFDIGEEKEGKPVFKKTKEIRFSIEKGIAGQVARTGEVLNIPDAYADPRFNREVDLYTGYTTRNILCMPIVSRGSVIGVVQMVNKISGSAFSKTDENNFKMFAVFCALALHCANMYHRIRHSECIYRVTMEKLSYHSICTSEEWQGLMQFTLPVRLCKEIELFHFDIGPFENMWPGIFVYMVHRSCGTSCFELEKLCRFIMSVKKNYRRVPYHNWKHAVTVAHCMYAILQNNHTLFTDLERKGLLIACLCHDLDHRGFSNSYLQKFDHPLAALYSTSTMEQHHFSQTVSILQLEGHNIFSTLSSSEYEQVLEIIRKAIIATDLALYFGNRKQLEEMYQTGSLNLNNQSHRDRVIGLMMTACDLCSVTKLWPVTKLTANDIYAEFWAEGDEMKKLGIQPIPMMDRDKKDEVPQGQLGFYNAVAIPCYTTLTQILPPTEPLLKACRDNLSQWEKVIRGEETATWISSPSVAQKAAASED
Chain of PDE2 (O00408 whole entry): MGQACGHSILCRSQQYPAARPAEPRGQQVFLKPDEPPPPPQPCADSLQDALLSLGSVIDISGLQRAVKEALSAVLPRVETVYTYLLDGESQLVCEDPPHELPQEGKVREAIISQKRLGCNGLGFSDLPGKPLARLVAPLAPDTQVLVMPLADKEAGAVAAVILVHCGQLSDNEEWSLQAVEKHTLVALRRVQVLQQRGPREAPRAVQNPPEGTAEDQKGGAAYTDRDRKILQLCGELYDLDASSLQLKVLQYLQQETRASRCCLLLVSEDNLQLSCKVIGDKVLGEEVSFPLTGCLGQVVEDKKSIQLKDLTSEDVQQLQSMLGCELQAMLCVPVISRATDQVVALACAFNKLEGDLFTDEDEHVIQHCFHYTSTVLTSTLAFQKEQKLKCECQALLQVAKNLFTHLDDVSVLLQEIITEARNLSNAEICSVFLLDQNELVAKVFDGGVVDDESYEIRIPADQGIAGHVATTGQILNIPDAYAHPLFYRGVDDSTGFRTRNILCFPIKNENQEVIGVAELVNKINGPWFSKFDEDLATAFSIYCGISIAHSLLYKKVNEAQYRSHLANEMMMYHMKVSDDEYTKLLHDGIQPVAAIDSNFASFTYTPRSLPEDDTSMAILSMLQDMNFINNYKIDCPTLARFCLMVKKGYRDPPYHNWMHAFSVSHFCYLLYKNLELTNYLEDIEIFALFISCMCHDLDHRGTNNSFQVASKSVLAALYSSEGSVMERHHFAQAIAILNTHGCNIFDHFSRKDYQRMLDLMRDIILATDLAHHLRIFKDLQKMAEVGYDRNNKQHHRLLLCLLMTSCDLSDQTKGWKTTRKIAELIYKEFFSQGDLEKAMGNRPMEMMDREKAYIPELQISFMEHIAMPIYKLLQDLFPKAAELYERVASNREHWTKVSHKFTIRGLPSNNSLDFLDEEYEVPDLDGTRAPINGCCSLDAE
Chain of PKG1β (Q13976 1-686 isoform Q13976-2): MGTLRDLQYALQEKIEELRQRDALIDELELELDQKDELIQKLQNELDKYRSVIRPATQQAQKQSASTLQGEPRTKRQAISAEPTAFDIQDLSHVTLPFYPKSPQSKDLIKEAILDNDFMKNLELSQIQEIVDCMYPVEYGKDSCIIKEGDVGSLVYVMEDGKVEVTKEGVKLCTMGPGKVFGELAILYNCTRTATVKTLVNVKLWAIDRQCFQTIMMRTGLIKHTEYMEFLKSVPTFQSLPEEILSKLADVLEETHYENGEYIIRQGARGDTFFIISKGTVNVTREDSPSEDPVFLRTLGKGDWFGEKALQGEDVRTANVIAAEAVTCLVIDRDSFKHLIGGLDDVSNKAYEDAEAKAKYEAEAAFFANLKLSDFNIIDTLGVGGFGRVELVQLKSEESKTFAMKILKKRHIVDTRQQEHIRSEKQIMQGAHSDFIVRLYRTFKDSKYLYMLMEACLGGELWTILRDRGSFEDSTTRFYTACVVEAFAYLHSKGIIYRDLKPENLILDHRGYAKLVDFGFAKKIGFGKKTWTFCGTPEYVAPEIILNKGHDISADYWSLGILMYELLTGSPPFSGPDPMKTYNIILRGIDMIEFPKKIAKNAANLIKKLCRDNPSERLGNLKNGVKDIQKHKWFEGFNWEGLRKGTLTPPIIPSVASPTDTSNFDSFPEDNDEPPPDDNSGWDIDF

For `Nc1nc2c(nc(Br)n2[C@@H]2O[C@@H]3COP(O)(=S)O[C@H]3[C@H]2O)c(=O)[nH]1` (stereo partly drawn) [Rp-8-Br-cGMPS], the “protection of rd1 and rd2 photoreceptors” value [1] is given as “some protection”.
For `O=c1c2nc(Br)n(C3OC4COP(O)(=S)OC4C3O)c2nc2[nH]c(-c3ccccc3)cn12` [DF003, Sodium, 3-[(4 aR,6R,7R,7aS)-7-hydroxy-2-oxido-2-sulfanylidene-4a,6,7,7a-tetrahydro-4H-furo [3,2-d] [1,3,2]dioxaphosphinin-6-yl]-2-bromo-6-phenyl-5H-imidazo [1,2-a] purin-9-one], the Ki [2] was 35 nM, the “lowest concentration that still reduced the death of rd1 photoreceptor-like cells” value ([3]; LP-DF003 dose expressed as corresponding DF003 concentration) was 100 nM and the “protective effect on rd1 photoreceptor-like cells” value ([3]; cell culture, FIG. 1A) was “preserved the viability”. For the same molecule, the Ki [4] was 30 nM, the “effect on wild-type photoreceptor-like cells (toxicity)” value [5] was “not affected” and the rd1 photoreceptor survival [6] was “did not show any improvement; also recorded: had no effect”. The “photoreceptor death in rd2 retinal explants” value [7] was “prevented photoreceptor death”, the IC50 [8] was 900 nM and the Ki [8] was 450 nM. The Ki [9] was 800 nM, the IC50 [10] was 25000 nM and the “inhibitory constants for CNGC and PKA isoforms 1 and 2 higher than those for PKG isoforms” value ([10]; CNGC and PKA1/PKA2 versus PKG isoforms) was 2-3 log units. The Ki [11] was 4100 nM, the Ki [12] was 8100 nM and the “photoreceptor death in rd10 retinal explants” value [13] was “prevented photoreceptor death”. For the same molecule, the Ki [14] was 5000 nM, the half-life [15] was about 15 min and the Ki [16] was 11000 nM. For the same molecule, the “toxicity in wt retinal explants” value [17] was “no signs of toxicity; also recorded: not affected”, the “photoreceptor death in rd1 retinal explants” value ([18]; FIG. 1B) was “reduced photoreceptor death; also recorded: preserved the viability” and the “toxicity in the inner retina” value ([18]; organotypic retinal explants, data not shown) was “no evidence of DF003 toxicity”. For the same molecule, the Ki [19] was 2500 nM and the Ki [20] was over 50000 nM.
